Laboratory results: ChEMBL document CHEMBL5038628, “Discovery of spiro amide SHR902275: A potent, selective, and efficacious RAF inhibitor targeting RAS mutant cancers” (Eur J Med Chem, 2022)
pIC50: −log10 of the molar value. Values after ≈ are worked out from the molar mass of the structure shown. Active and inactive are the calls of the source. The rule behind the calls is not given here.

Assays:
Calu-6 [1] = experiment: Antitumor activity against human Calu-6 cells xenografted in nude mouse assessed as tumor growth inhibition at 30 mg/kg,IT QD for 12 days relative to control; format: functional; conditions: Calu-6, 288 h, time 12 day, read-out: TGI
[2] = Solubility of the compound at pH 7.4; conditions: buffer
NCI-H358 = experiment: Cytotoxicity against human NCI-H358 cells assessed as inhibition of growth measured after 72 hrs by CellTiter-Glo luciferase assay; format: functional
[3] = molecular target: RAF proto-oncogene serine/threonine-protein kinase (Homo sapiens, UniProt P04049); experiment: Inhibition of human recombinant cRAF measured after 60 mins by TR-FRET assay
[4] = Metabolic stability in mouse liver microsomes assessed as half life; format: ADME, Microsome
Cytochrome P450 2D6 = Cytochrome P450 2D6 (Homo sapiens, UniProt P10635); experiment: Inhibition of CYP2D6 (unknown origin)
SK-MEL-2 = experiment: Cytotoxicity against human SK-MEL-2 cells assessed as inhibition of growth measured after 72 hrs by CellTiter-Glo luciferase assay; format: functional
[5] = Oral bioavailability in Sprague-Dawley rat by LC-MS/MS analysis; format: ADME, organism-based; conditions: in vivo
Cytochrome P450 1A2 = molecular target: T1, Cytochrome P450 1A2 (Homo sapiens, UniProt P05177); experiment: Inhibition of CYP1A2 (unknown origin)
T1 sequence (P05177 whole entry): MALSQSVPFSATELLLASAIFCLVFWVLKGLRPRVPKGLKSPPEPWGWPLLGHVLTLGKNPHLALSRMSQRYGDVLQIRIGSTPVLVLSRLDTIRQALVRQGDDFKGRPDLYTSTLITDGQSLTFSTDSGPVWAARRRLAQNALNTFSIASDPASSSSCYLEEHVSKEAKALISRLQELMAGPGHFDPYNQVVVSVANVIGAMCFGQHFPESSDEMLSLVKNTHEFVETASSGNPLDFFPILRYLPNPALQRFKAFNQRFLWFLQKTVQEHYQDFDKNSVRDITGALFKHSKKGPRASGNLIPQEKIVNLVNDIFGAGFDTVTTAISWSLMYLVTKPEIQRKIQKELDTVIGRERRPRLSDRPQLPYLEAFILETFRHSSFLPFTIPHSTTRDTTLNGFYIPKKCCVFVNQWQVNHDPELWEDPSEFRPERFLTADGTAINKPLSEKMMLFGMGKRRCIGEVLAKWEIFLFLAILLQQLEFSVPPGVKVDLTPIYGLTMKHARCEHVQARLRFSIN

A-375 = experiment: Cytotoxicity against human A-375 cells assessed as inhibition of growth measured after 72 hrs by CellTiter-Glo luciferase assay; format: functional
[6] = Metabolic stability in human liver microsomes assessed as half life; format: ADME, Microsome
Cytochrome P450 3A4 [7] = molecular target: T2, Cytochrome P450 3A4 (Homo sapiens, UniProt P08684); experiment: Inhibition of CYP3A4 (unknown origin) using testosterone as substrate
Calu-6 [8] = experiment: Cytotoxicity against human Calu-6 cells assessed as inhibition of growth measured after 72 hrs by CellTiter-Glo luciferase assay; format: functional
[9] = AUC (0 to t) in Sprague-Dawley rat plasma at 2 mg/kg, IG by LC-MS/MS analysis; format: ADME, organism-based; set-up: dose 2 mg/kg; conditions: po
Cytochrome P450 2C19 = Cytochrome P450 2C19 (Homo sapiens, UniProt P33261); experiment: Inhibition of CYP2C19 (unknown origin)
P-gp (ABCB1) = P-gp (ABCB1) (Homo sapiens, UniProt P08183); experiment: Substrate activity at P-gp in human Caco-2 cells assessed as efflux ratio of permeability
[10] = molecular target: Voltage-gated inwardly rectifying potassium channel KCNH2 (Homo sapiens, UniProt Q12809)
[11] = molecular target: Serine/threonine-protein kinase B-raf (Homo sapiens, UniProt P15056, V600E); experiment: Inhibition of human recombinant BRAF V600E mutant measured after 60 mins by TR-FRET assay
Cytochrome P450 3A4 [12] = molecular target: T2, Cytochrome P450 3A4; experiment: Inhibition of CYP3A4 (unknown origin) using midazolam as substrate
[13] = Cmax in Sprague-Dawley rat plasma at 2 mg/kg, IG by LC-MS/MS analysis; format: ADME, organism-based; set-up: route […], dose 2 mg/kg; conditions: po
[14] = Fraction unbound in mouse plasma; format: ADME, cell-free
Cytochrome P450 2C9 = Cytochrome P450 2C9 (Homo sapiens, UniProt P11712); experiment: Inhibition of CYP2C9 (unknown origin)
[15] = Metabolic stability in rat liver microsomes assessed as half life; format: ADME, Microsome
[16] = Apparent permeability across basolateral to apical membrane in human Caco-2 cells
[17] = Fraction unbound in human plasma; format: ADME, cell-free
[18] = Apparent permeability across apical to basolateral membrane in human Caco-2 cells
[19] = Fraction unbound in rat plasma; format: ADME, cell-free
[20] = molecular target: Serine/threonine-protein kinase B-raf (Homo sapiens, UniProt P15056); experiment: Inhibition of human recombinant wild type BRAF measured after 60 mins by TR-FRET assay
[21] = AUC (0-t) in Sprague-Dawley rat plasma assessed as parent compound at 121 mg/kg, IG by LC-MS/MS analysis; format: ADME, organism-based; set-up: dose 121 mg/kg; conditions: in vivo, po
[22] = Cmax in Sprague-Dawley rat assessed as parent compound at 24 mg/kg, IG by LC-MS/MS analysis; format: ADME, organism-based, Plasma; set-up: route […], dose 24 mg/kg; conditions: in vivo, po
[23] = Cmax in Sprague-Dawley rat plasma assessed as parent compound at 121 mg/kg, IG by LC-MS/MS analysis; format: ADME, organism-based; set-up: route […], dose 121 mg/kg; conditions: in vivo, po
[24] = Toxicity in nude mouse assessed as reduction in body weight measured at 5 to 30 mg/kg,IT BID for 14 days; format: organism-based; conditions: in vivo, other, 336 h, dose 5-30 mg/kg, time 14 day
[25] = Clearance in Sprague-Dawley rat plasma at 1 mg/kg, iv by LC-MS/MS analysis; format: ADME, organism-based
[26] = AUC (0 to t) in Sprague-Dawley rat plasma at 20 mg/kg, IG by LC-MS/MS analysis; format: ADME, organism-based; set-up: dose 20 mg/kg; conditions: po
Calu-6 [27] = experiment: Antitumor activity against human Calu-6 cells xenografted in nude mouse assessed as tumor growth inhibition at 5 to 30 mg/kg,IT BID for 14 days relative to control; format: functional, organism-based; conditions: dose 5-30 mg/kg, time 14.0 day
[28] = Cmax in Sprague-Dawley rat plasma at 20 mg/kg, IG by LC-MS/MS analysis; format: ADME, organism-based; set-up: route […], dose 20 mg/kg; conditions: po
[29] = Cmax in C57 mouse at 2 mg/kg, IG; format: ADME, organism-based; set-up: route […], dose 2 mg/kg; conditions: in vivo, po
[30] = Oral bioavailability in C57 mouse; format: ADME, organism-based; conditions: in vivo
[31] = Half life in Sprague-Dawley rat plasma at 1 mg/kg, iv by LC-MS/MS analysis; format: ADME, organism-based; conditions: Sprague-Dawley, plasma
[32] = Half life in C57 mouse at 1 mg/kg, iv; format: ADME, organism-based; conditions: in vivo
[33] = molecular target: T3, Eukaryotic translation initiation factor 2-alpha kinase 3 (Homo sapiens) (UniProt Q9NZJ5); experiment: Inhibition of human His-tagged PERK by TR-FRET assay
T3 sequence (whole entry): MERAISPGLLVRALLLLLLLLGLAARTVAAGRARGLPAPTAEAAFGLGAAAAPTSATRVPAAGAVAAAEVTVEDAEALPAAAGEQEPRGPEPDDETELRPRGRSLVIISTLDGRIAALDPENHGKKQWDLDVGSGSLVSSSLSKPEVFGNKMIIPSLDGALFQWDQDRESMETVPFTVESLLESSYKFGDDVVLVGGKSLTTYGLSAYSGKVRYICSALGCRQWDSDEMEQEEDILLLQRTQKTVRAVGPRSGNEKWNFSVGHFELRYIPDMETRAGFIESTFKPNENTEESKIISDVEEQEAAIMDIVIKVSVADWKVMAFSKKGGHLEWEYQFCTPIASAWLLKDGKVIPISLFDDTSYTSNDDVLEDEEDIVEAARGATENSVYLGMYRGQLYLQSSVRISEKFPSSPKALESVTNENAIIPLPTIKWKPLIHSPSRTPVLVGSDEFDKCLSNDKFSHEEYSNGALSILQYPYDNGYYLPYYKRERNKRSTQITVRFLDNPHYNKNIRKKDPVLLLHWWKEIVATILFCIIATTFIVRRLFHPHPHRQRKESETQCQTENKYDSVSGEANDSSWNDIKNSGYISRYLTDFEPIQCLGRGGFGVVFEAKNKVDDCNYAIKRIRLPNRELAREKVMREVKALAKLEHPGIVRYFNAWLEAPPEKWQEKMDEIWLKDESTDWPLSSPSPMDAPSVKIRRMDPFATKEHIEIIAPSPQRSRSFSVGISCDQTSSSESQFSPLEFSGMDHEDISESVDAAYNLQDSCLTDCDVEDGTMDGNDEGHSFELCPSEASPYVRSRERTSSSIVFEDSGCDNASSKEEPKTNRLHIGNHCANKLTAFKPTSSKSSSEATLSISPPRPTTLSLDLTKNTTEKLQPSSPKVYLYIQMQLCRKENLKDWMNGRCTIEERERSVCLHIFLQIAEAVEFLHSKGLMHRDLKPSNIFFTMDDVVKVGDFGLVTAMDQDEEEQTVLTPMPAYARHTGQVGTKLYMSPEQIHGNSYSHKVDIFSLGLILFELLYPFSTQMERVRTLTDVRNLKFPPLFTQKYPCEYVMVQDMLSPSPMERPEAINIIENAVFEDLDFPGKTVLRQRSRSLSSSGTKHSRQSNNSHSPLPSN

[34] = Clearance in C57 mouse at 1 mg/kg, iv; format: ADME, organism-based; conditions: in vivo
[35] = AUC (0 to t) in C57 mouse at 2 mg/kg, IG; format: ADME, organism-based; set-up: dose 2 mg/kg; conditions: in vivo, po

RAF proto-oncogene serine/threonine-protein kinase, sequence (P04049 whole entry): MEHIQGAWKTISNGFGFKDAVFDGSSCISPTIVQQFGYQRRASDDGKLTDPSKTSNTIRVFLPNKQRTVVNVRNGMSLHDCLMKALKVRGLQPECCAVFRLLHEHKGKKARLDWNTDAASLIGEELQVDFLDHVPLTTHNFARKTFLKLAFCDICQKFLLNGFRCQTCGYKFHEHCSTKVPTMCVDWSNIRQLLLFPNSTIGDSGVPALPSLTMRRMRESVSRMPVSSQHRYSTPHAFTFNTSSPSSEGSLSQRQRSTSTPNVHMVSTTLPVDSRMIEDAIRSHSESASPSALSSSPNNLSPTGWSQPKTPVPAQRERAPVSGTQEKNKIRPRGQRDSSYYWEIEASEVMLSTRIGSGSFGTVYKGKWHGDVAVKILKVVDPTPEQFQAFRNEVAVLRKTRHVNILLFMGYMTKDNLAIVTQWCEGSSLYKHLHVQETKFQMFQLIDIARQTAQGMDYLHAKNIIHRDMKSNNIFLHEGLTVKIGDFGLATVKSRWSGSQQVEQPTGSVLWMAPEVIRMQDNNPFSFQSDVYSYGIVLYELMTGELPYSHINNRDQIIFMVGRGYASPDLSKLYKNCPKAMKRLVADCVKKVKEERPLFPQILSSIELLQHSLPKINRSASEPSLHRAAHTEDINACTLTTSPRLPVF
T2 sequence (P08684 whole entry): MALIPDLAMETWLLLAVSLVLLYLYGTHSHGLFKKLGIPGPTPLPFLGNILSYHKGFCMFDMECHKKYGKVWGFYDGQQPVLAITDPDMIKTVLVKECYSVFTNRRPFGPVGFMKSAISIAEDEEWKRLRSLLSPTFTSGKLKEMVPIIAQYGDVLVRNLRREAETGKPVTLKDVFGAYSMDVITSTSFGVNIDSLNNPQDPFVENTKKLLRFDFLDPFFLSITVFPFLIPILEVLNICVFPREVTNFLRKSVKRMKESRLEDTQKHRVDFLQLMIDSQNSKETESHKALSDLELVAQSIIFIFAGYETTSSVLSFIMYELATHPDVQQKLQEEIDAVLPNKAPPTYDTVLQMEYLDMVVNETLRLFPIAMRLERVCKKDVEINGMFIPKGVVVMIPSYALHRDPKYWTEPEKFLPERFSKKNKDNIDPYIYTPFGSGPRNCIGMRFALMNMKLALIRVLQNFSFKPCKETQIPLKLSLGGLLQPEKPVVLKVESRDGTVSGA
Serine/threonine-protein kinase B-raf (Homo sapiens, UniProt P15056, V600E), sequence (P15056 2-766 V600E limits assumed): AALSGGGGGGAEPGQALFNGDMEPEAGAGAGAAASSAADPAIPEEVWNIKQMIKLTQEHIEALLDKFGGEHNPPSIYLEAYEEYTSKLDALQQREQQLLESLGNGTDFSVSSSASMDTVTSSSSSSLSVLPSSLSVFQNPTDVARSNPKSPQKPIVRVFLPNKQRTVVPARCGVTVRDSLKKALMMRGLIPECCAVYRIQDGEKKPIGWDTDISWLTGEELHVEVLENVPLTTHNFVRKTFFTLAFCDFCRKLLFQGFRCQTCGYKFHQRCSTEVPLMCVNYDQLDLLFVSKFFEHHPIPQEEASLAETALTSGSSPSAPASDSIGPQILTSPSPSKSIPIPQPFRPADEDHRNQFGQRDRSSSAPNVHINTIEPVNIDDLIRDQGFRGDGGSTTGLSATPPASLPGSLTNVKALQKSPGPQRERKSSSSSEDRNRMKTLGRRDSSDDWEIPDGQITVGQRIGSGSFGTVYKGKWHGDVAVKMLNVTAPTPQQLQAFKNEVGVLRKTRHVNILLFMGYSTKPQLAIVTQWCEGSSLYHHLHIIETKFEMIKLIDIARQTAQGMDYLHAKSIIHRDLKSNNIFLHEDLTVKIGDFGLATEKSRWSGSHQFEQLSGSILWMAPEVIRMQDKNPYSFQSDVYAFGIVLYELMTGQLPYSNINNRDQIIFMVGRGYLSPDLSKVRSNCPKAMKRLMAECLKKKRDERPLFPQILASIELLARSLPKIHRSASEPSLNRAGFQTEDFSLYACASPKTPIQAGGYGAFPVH
Serine/threonine-protein kinase B-raf (Homo sapiens, UniProt P15056), sequence (P15056 whole entry): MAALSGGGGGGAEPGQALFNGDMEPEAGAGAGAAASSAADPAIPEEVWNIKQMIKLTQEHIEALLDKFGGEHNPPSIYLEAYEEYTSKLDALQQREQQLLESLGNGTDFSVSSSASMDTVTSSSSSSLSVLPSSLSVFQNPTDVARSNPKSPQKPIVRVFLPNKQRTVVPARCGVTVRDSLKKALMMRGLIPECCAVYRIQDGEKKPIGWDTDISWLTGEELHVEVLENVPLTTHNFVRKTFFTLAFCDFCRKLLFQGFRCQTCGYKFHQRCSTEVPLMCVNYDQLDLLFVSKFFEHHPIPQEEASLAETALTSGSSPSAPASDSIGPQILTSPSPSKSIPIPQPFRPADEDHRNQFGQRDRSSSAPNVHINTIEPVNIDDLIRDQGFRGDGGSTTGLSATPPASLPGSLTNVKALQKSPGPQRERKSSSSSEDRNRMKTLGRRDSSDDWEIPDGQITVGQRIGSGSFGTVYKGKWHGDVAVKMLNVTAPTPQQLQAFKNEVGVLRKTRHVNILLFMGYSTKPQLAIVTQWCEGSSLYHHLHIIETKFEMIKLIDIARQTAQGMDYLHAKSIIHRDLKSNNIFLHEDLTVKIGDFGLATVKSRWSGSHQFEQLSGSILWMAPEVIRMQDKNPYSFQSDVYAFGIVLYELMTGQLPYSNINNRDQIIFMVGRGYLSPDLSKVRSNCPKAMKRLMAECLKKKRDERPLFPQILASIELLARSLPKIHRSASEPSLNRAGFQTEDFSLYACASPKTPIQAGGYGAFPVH
P-gp (ABCB1), sequence (P08183 whole entry): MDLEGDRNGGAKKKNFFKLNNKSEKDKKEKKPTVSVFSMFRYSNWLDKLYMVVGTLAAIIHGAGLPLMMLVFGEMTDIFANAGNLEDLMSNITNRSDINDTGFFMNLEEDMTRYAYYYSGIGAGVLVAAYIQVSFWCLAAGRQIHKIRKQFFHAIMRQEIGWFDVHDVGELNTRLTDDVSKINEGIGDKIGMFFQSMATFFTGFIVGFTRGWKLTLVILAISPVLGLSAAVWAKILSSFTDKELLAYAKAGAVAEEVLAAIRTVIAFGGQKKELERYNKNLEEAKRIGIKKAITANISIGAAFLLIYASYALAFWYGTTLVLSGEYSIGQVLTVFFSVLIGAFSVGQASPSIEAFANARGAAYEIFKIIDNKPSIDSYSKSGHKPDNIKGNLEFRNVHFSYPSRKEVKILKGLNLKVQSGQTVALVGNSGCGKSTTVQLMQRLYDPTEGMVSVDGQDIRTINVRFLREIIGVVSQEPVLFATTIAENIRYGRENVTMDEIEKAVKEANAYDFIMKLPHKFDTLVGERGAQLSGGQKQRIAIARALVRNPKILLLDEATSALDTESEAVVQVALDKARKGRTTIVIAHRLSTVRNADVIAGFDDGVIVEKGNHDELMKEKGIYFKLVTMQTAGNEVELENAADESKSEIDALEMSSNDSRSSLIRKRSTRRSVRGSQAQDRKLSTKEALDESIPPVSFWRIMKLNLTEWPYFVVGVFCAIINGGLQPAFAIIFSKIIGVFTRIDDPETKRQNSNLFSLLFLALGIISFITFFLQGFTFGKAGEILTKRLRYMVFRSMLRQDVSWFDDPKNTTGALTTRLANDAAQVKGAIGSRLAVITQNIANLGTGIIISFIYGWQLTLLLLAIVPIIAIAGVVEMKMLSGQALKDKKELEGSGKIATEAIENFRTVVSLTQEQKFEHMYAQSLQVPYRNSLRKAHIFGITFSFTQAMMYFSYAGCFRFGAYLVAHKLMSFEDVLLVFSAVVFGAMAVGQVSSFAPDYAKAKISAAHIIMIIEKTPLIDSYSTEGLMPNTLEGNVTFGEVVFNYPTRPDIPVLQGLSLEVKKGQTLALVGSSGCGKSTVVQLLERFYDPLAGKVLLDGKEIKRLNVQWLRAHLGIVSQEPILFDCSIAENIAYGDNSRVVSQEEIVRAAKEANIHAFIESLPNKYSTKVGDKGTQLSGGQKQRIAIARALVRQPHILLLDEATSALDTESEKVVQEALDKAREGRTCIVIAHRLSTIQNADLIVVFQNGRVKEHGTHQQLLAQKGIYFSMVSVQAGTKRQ
Cytochrome P450 2D6, sequence (P10635 whole entry): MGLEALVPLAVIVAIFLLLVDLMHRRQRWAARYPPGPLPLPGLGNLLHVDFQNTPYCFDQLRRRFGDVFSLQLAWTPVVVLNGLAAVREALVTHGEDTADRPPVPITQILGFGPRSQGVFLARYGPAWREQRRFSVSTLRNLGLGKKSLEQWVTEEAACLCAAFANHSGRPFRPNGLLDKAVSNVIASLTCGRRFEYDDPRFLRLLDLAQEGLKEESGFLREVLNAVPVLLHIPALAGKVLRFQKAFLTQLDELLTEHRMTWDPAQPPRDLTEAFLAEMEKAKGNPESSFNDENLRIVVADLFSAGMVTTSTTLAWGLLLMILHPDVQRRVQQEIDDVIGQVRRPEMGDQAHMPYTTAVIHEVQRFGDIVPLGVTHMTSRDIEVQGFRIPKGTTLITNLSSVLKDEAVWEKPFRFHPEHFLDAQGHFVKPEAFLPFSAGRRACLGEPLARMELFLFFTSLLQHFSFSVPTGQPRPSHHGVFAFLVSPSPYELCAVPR
Cytochrome P450 2C9, sequence (P11712 whole entry): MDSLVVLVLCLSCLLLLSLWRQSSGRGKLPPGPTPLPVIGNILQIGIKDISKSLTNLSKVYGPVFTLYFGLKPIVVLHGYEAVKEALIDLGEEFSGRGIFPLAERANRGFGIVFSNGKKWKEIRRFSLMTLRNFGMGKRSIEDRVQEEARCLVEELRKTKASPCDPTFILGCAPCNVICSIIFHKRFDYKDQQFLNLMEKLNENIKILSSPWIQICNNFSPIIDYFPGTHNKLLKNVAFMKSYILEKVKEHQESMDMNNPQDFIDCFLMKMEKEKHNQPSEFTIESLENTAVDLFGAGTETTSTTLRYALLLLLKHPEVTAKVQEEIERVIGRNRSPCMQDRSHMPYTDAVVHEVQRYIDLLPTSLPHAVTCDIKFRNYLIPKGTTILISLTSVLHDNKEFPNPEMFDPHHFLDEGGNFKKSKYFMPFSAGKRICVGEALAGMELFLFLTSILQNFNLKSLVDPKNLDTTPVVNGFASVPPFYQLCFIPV

| Compound | inhibition in vivo at 30 mg/kg (Calu-6 [1]) [%] | solubility [2] [µM] | GI50 (NCI-H358) [nM] | pIC50 [3] | half-life [4] [h] | GI50 (SK-MEL-2) [nM] | GI50 (A-375) [nM] | half-life [6] [h] | GI50 (Calu-6 [8]) [nM] | pIC50 [11] | Cmax [13] [ng/mL] | fraction unbound [14] | half-life [15] [h] | fraction unbound [17] | fraction unbound [19] | pIC50 [20] | further results |
| --- | --- | --- | --- | --- | --- | --- | --- | --- | --- | --- | --- | --- | --- | --- | --- | --- | --- |
| Cc1ccc(NC(=O)c2ccnc(C(F)(F)F)c2)cc1-c1cc(OCCO)nc(N2CCOCC2)c1 [NAPORAFENIB] | 67 | 26 (≈ 13.1 µg/mL) | 3000 | 8.07 |  |  |  |  |  |  |  |  |  |  |  |  |  |
| Cc1ccc(NC(=O)c2ccnc(C(F)(F)F)c2)cc1-c1ccc2c(c1)OC1(CCOCC1)CC(=O)N2 | 41 | 0.9 (≈ 0.46 µg/mL) | 1700 | 8.29 | > 2.32 | 230 | 150 | 2.32 | 350 | 7.96 | 47.3 | 0.012 | 0.748 | 0.004 | 0.009 | 7.92 | pIC50 (Cytochrome P450 2D6): < 4.52; F [5]: 18.7%; pIC50 (Cytochrome P450 1A2): < 4.52; pIC50 (Cytochrome P450 3A4 [7]): 4.88; AUCt ([9]; in vivo): 3.12 ng·h/mL; pIC50 (Cytochrome P450 2C19): < 4.52; efflux ratio (P-gp (ABCB1)): 2.53; pIC50 [10]: 5.52; pIC50 (Cytochrome P450 3A4 [12]): < 4.52; pIC50 (Cytochrome P450 2C9): 4.99; Papp B→A [16]: 39.8 ×10⁻⁶ cm/s; Papp A→B [18]: 15.7 ×10⁻⁶ cm/s |
| Cc1ccc(NC(=O)c2cc(C(F)(F)F)cnn2)cc1-c1ccc2c(c1)OC1(CCOCC1)CC(=O)N2COP(=O)(O)O |  |  |  |  |  |  |  |  |  |  |  |  |  |  |  |  | AUCt [21]: 132780 ng·h/mL; Cmax [22]: 2848 ng/mL; Cmax [23]: 10740 ng/mL |
| Cc1ccc(NC(=O)c2cc(C(F)(F)F)cnn2)cc1-c1ccc2c(c1)OC1(CCOCC1)CC(=O)N2 |  |  | 1400 | 8.80 | > 2.32 | 320 | 170 | 1.77 | 400 | 8.24 | 956 | 0.018 | 1.24 | 0.006 | 0.06 | 8.00 | Activity [24]: Non-Toxic; clearance [25]: 7.2 mL/min/kg; bioavailability ([5]; Sprague-Dawley): 101%; AUC(0-t) [26]: 21800 ng·h/mL; TGI (Calu-6 [27]): Dose-Dependent Effect; AUC(0-t) ([9]; Sprague-Dawley, plasma): 4700 ng·h/mL; Cmax [28]: 2810 ng/mL; Cmax [29]: 953 ng/mL; bioavailability [30]: 112%; half-life [31]: 1.6 h; half-life [32]: 3.6 h; inhibition [33]: Active; clearance [34]: 6.8 mL/min/kg; AUC(0-t) [35]: 5410 ng·h/mL |
